Assay results reported in patent US20230085307A1, “PYRIDAZINONE COMPOUND AND HERBICIDE” (NISSAN CHEMICAL CORPORATION, priority 2019, published 2023).

How the values were obtained:
[1] = tested on: lambsquarters; assay: Test Example 5: herbicidal effect by foliage application, plastic box (Table 20, symbol O); assay type: in vivo, lambsquarters (Chenopodium album); details: foliage application, 320 g/ha
Outline: (§1)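 Sow seeds spot-wise in sterilized diluvial soil; cover with ~1.5 cm soil. Grow 14 days in greenhouse, 25° C. to 30° C. Spray foliage with emulsion diluted to predetermined amount. Rate effect after 3 weeks.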

[2] = tested on: southern crabgrass; assay: Test Example 4: herbicidal effect by soil treatment (Table 19, symbol F); assay type: in vivo, southern crabgrass (Digitaria ciliaris); details: amount of applied herbicide 320 g/ha
Outline: (§2)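 Applied as a water-diluted emulsion, the compound was sprayed onto soil covering newly sown seeds. Evaluation came three weeks after application, in a greenhouse held at 25° C. to 30° C.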

[3] = tested on: Italian ryegrass; assay: Test Example 5: herbicidal effect by foliage application, plastic box (Table 20, symbol K); assay type: in vivo, Italian ryegrass (Lolium multiflorum); details: foliage application, 320 g/ha
Outline: as §1

[4] = tested on: barnyard grass; assay: Test Example 4: herbicidal effect by soil treatment (Table 19, symbol H); assay type: in vivo, barnyard grass (Echinochloa crus-galli); details: amount of applied herbicide 320 g/ha
Outline: as §2

[5] = tested on: redroot pigweed; assay: Test Example 4: herbicidal effect by soil treatment (Table 19, symbol N); assay type: in vivo, redroot pigweed (Amaranthus retroflexus); details: amount of applied herbicide 320 g/ha
Outline: as §2

[6] = tested on: windgrass; assay: Test Example 4: herbicidal effect by soil treatment (Table 19, symbol L); assay type: in vivo, windgrass (Apera spica-venti); details: amount of applied herbicide 320 g/ha
Outline: as §2

[7] = tested on: lambsquarters; assay: Test Example 4: herbicidal effect by soil treatment (Table 19, symbol O); assay type: in vivo, lambsquarters (Chenopodium album); details: amount of applied herbicide 320 g/ha
Outline: as §2

[8] = tested on: chickweed; assay: Test Example 5: herbicidal effect by foliage application, plastic box (Table 20, symbol P); assay type: in vivo, common chickweed (Stellaria media); details: foliage application, 320 g/ha
Outline: as §1

[9] = tested on: Chinese sprangletop; assay: Test Example 3: herbicidal effect by foliage application, Wagner pot (Table 18, symbol D); assay type: in vivo, chinese sprangletop (Leptochloa chinensis)
Outline: (§3)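 Plants were sown in alluvial soil held under 0.1–0.5 cm standing water and grown 14 days in a greenhouse at 25–30 °C. An emulsifiable formulation, water-diluted to the set dose, was then sprayed onto the foliage, and effects were scored three weeks later using previously defined criteria.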

[10] = tested on: windgrass; assay: Test Example 5: herbicidal effect by foliage application, plastic box (Table 20, symbol L); assay type: in vivo, windgrass (Apera spica-venti); details: foliage application, 320 g/ha
Outline: as §1

[11] = tested on: blackgrass; assay: Test Example 4: herbicidal effect by soil treatment (Table 19, symbol J); assay type: in vivo, blackgrass (Alopecurus myosuroides); details: amount of applied herbicide 320 g/ha
Outline: as §2

[12] = tested on: barnyard grass; assay: Test Example 3: herbicidal effect by foliage application, Wagner pot (Table 18, symbol H); assay type: in vivo, barnyard grass (Echinochloa crus-galli)
Outline: as §3

[13] = tested on: green foxtail; assay: Test Example 5: herbicidal effect by foliage application, plastic box (Table 20, symbol G); assay type: in vivo, green foxtail (Setaria viridis); details: foliage application, 320 g/ha
Outline: as §1

[14] = tested on: blackgrass; assay: Test Example 5: herbicidal effect by foliage application, plastic box (Table 20, symbol J); assay type: in vivo, blackgrass (Alopecurus myosuroides); details: foliage application, 320 g/ha
Outline: as §1

[15] = tested on: southern crabgrass; assay: Test Example 5: herbicidal effect by foliage application, plastic box (Table 20, symbol F); assay type: in vivo, southern crabgrass (Digitaria ciliaris); details: foliage application, 320 g/ha
Outline: as §1

[16] = tested on: velvetleaf; assay: Test Example 4: herbicidal effect by soil treatment (Table 19, symbol M); assay type: in vivo, velvetleaf (Abutilon theophrasti); details: amount of applied herbicide 320 g/ha
Outline: as §2

[17] = tested on: rice flat sedge; assay: Test Example 3: herbicidal effect by foliage application, Wagner pot (Table 18, symbol E); assay type: in vivo, rice flat sedge (Cyperus iria)
Outline: as §3

[18] = tested on: Italian ryegrass; assay: Test Example 4: herbicidal effect by soil treatment (Table 19, symbol K); assay type: in vivo, Italian ryegrass (Lolium multiflorum); details: amount of applied herbicide 320 g/ha
Outline: as §2

[19] = tested on: wild oat; assay: Test Example 4: herbicidal effect by soil treatment (Table 19, symbol I); assay type: in vivo, wild oat (Avena fatua); details: amount of applied herbicide 320 g/ha
Outline: as §2

[20] = tested on: redroot pigweed; assay: Test Example 5: herbicidal effect by foliage application, plastic box (Table 20, symbol N); assay type: in vivo, redroot pigweed (Amaranthus retroflexus); details: foliage application, 320 g/ha
Outline: as §1

[21] = tested on: barnyard grass; assay: Test Example 5: herbicidal effect by foliage application, plastic box (Table 20, symbol H); assay type: in vivo, barnyard grass (Echinochloa crus-galli); details: foliage application, 320 g/ha
Outline: as §1

[22] = tested on: persian speedwell; assay: Test Example 4: herbicidal effect by soil treatment (Table 19, symbol R); assay type: in vivo, Persian speedwell (Veronica persica); details: amount of applied herbicide 320 g/ha
Outline: as §2

[23] = tested on: wild oat; assay: Test Example 5: herbicidal effect by foliage application, plastic box (Table 20, symbol I); assay type: in vivo, wild oat (Avena fatua); details: foliage application, 320 g/ha
Outline: as §1

[24] = tested on: velvetleaf; assay: Test Example 5: herbicidal effect by foliage application, plastic box (Table 20, symbol M); assay type: in vivo, velvetleaf (Abutilon theophrasti); details: foliage application, 320 g/ha
Outline: as §1

[25] = tested on: persian speedwell; assay: Test Example 5: herbicidal effect by foliage application, plastic box (Table 20, symbol R); assay type: in vivo, Persian speedwell (Veronica persica); details: foliage application, 320 g/ha
Outline: as §1

[26] = tested on: chickweed; assay: Test Example 4: herbicidal effect by soil treatment (Table 19, symbol P); assay type: in vivo, common chickweed (Stellaria media); details: amount of applied herbicide 320 g/ha
Outline: as §2

[27] = tested on: green foxtail; assay: Test Example 4: herbicidal effect by soil treatment (Table 19, symbol G); assay type: in vivo, green foxtail (Setaria viridis); details: amount of applied herbicide 320 g/ha
Outline: as §2

[28] = evaluated three weeks after application
[29] = amount of applied herbicide 320 g/ha

SMILES: CSc1ccccc1-c1sc2ccccc2c1-c1c(O)c(C)nn(C)c1=O [1-034]
- herbicidal effect grade, O: lambsquarters ([1]; three weeks after application): 0 (Herbicidal rate of 5% or less (almost no effect))
- herbicidal effect rating, F: southern crabgrass [2]: 0 (Herbicidal rate of 5% or less (almost no effect))
- herbicidal effect grade, K: Italian ryegrass ([3]; three weeks after application): 0 (Herbicidal rate of 5% or less (almost no effect))
- herbicidal effect rating, H: barnyard grass [4]: 0 (Herbicidal rate of 5% or less (almost no effect))
- herbicidal effect rating, N: redroot pigweed [5]: 0 (Herbicidal rate of 5% or less (almost no effect))
- herbicidal effect rating, L: windgrass [6]: 0 (Herbicidal rate of 5% or less (almost no effect))
- herbicidal effect rating, O: lambsquarters [7]: 0 (Herbicidal rate of 5% or less (almost no effect))
- herbicidal effect grade, P: chickweed ([8]; three weeks after application): 4 (Herbicidal rate of 70% or more and less than 90%)
- herbicidal effect on D (Chinese sprangletop), rating 0-5 ([9]; 320 g/ha): 0 (Herbicidal rate of 5% or less (almost no effect))
- herbicidal effect grade, L: windgrass ([10]; three weeks after application): 0 (Herbicidal rate of 5% or less (almost no effect))
- herbicidal effect rating, J: blackgrass [11]: 0 (Herbicidal rate of 5% or less (almost no effect))
- herbicidal effect on H (barnyard grass), rating 0-5 ([12]; 320 g/ha): 1 (Herbicidal rate of 5% or more and less than 20%)
- herbicidal effect grade, G: green foxtail ([13]; three weeks after application): 0 (Herbicidal rate of 5% or less (almost no effect))
- herbicidal effect grade, J: blackgrass ([14]; three weeks after application): 0 (Herbicidal rate of 5% or less (almost no effect))
- herbicidal effect grade, F: southern crabgrass ([15]; three weeks after application): 0 (Herbicidal rate of 5% or less (almost no effect))
- herbicidal effect rating, M: velvetleaf [16]: 0 (Herbicidal rate of 5% or less (almost no effect))
- herbicidal effect on E (rice flat sedge), rating 0-5 ([17]; 320 g/ha): 3 (Herbicidal rate of 40% or more and less than 70%)
- herbicidal effect rating, K: Italian ryegrass [18]: 0 (Herbicidal rate of 5% or less (almost no effect))
- herbicidal effect rating, I: wild oat [19]: 0 (Herbicidal rate of 5% or less (almost no effect))
- herbicidal effect grade, N: redroot pigweed ([20]; three weeks after application): 0 (Herbicidal rate of 5% or less (almost no effect))
- herbicidal effect grade, H: barnyard grass ([21]; three weeks after application): 0 (Herbicidal rate of 5% or less (almost no effect))
- herbicidal effect rating, R: persian speedwell [22]: 0 (Herbicidal rate of 5% or less (almost no effect))
- herbicidal effect grade, I: wild oat ([23]; three weeks after application): 2 (Herbicidal rate of 20% or more and less than 40%)
- herbicidal effect grade, M: velvetleaf ([24]; three weeks after application): 0 (Herbicidal rate of 5% or less (almost no effect))
- herbicidal effect grade, R: persian speedwell ([25]; three weeks after application): 1 (Herbicidal rate of 5% or more and less than 20%)
- herbicidal effect rating, P: chickweed [26]: 3 (Herbicidal rate of 40% or more and less than 70%)

SMILES: CCCC(=O)Oc1c(C)nn(C)c(=O)c1-c1c(-c2ccc(C#N)cc2)sc2ccc(C)cc12 [2-147]
- herbicidal effect on O: lambsquarters (criteria 0-5) [1, 28]: 3 (Herbicidal rate of 40% or more and less than 70%)
- F: southern crabgrass, herbicidal effect rating [2]: 0 (Herbicidal rate of 5% or less (almost no effect))
- herbicidal effect on K: Italian ryegrass (criteria 0-5) [3, 28]: 0 (Herbicidal rate of 5% or less (almost no effect))
- G: green foxtail, herbicidal effect rating [27]: 0 (Herbicidal rate of 5% or less (almost no effect))
- H: barnyard grass, herbicidal effect rating [4]: 0 (Herbicidal rate of 5% or less (almost no effect))
- L: windgrass, herbicidal effect rating [6]: 0 (Herbicidal rate of 5% or less (almost no effect))
- O: lambsquarters, herbicidal effect rating [7]: 0 (Herbicidal rate of 5% or less (almost no effect))
- herbicidal effect on P: chickweed (criteria 0-5) [8, 28]: 5 (Herbicidal rate of 90% or more (almost completely withered))
- herbicidal effect on D: Chinese sprangletop [9, 29]: 0 (Herbicidal rate of 5% or less (almost no effect))
- herbicidal effect on L: windgrass (criteria 0-5) [10, 28]: 0 (Herbicidal rate of 5% or less (almost no effect))
- J: blackgrass, herbicidal effect rating [11]: 0 (Herbicidal rate of 5% or less (almost no effect))
- herbicidal effect on H: barnyard grass [12, 29]: 1 (Herbicidal rate of 5% or more and less than 20%)
- herbicidal effect on G: green foxtail (criteria 0-5) [13, 28]: 0 (Herbicidal rate of 5% or less (almost no effect))
- herbicidal effect on J: blackgrass (criteria 0-5) [14, 28]: 0 (Herbicidal rate of 5% or less (almost no effect))
- herbicidal effect on F: southern crabgrass (criteria 0-5) [15, 28]: 0 (Herbicidal rate of 5% or less (almost no effect))
- M: velvetleaf, herbicidal effect rating [16]: 0 (Herbicidal rate of 5% or less (almost no effect))
- herbicidal effect on E: rice flat sedge [17, 29]: 5 (Herbicidal rate of 90% or more (almost completely withered))
- K: Italian ryegrass, herbicidal effect rating [18]: 0 (Herbicidal rate of 5% or less (almost no effect))
- I: wild oat, herbicidal effect rating [19]: 0 (Herbicidal rate of 5% or less (almost no effect))
- herbicidal effect on N: redroot pigweed (criteria 0-5) [20, 28]: 5 (Herbicidal rate of 90% or more (almost completely withered))
- herbicidal effect on H: barnyard grass (criteria 0-5) [21, 28]: 0 (Herbicidal rate of 5% or less (almost no effect))
- R: persian speedwell, herbicidal effect rating [22]: 5 (Herbicidal rate of 90% or more (almost completely withered))
- herbicidal effect on I: wild oat (criteria 0-5) [23, 28]: 0 (Herbicidal rate of 5% or less (almost no effect))
- herbicidal effect on M: velvetleaf (criteria 0-5) [24, 28]: 4 (Herbicidal rate of 70% or more and less than 90%)
- herbicidal effect on R: persian speedwell (criteria 0-5) [25, 28]: 5 (Herbicidal rate of 90% or more (almost completely withered))
- P: chickweed, herbicidal effect rating [26]: 4 (Herbicidal rate of 70% or more and less than 90%)
